Test results: patent US7371780B2, “Use of calphostin C to treat drug-resistant tumor cells” (priority 2003, dated 2008)

Experiments:
MCF-7 cells [1] = assay: Clonogenic assay, MCF-7 cells; assay type: cell-based, human; settings: Homo sapiens, MCF7, 24 h drug, calphostin C light-activated 2 h, read-out: IC50 (concentration required to kill or inhibit the growth of 50% of cells)
Protocol: (§1) The breast cancer cell line MCF-7 (lot HTB-22) was obtained from the American […] (ATCC) and maintained in Dulbecco's H21 medium (MEM) supplemented with 10% Fetal Bovine Serum (FBS) (HyClone, Logan, Utah) in a humidified atmosphere containing 5% CO2 at 37° C. To establish drug resistant cell lines, MCF-7 cells were grown in the presence of either paclitaxel or doxorubicin, beginning at a concentration 1000-fold below that required to kill 50% of the cells (the IC50). The drug concentration was increased 3-fold every two weeks (two passages), with an aliquot of the cells removed for storage in liquid nitrogen before each increase in concentration. Dose escalation continued until all cells died, after which the cells able to tolerate the highest concentration of drug were thawed for subsequent study. In this way, paclitaxel-resistant (MCF-7TAX) and doxorubicin-resistant (MCF-7DOX) cell lines were established. The IC50 for each drug was determined using a clonogenic assay as outlined below. The drug resistant cells were kept in culture in the presence of the maximally tolerated drug dose. Before each experiment, the cell lines were grown for two days in the absence of drug after which fresh medium containing either calphostin C (Sigma Laboratories, Oakville, ON), doxorubicin (Adriamycin PFS®, USP, Mississauga, ON) or paclitaxel (Taxol, Bristol-Myers Squibb, Montreal, QC) was added at the concentrations indicated.
(§2) The sensitivity of MCF-7, MCF-7TAX and MCF-7DOX cells to calphostin C, paclitaxel or doxorubicin was determined using a clonogenic assay. Briefly, 2.5×10^5 cells were seeded into 25 cm^2 tissue culture flasks in Dulbecco's H21 medium supplemented with 10% FBS. The cells were allowed to grow overnight, after which the medium was removed and replaced with medium containing varying concentrations of paclitaxel, doxorubicin, or calphostin C (after 2 hours of light exposure to activate the molecule). […] The colonies present in 5 randomly selected fields were then counted by visual inspection. […]

[2] = test system: MCF-7DOX (doxorubicin-resistant) cells; assay: Clonogenic assay, MCF-7DOX cells; assay type: cell-based, human; settings: for fold resistance / lower sensitivity compared to MCF-7 cells: MCF-7DOX vs MCF-7
Protocol: as §1
The sensitivity of MCF-7, MCF-7TAX and MCF-7DOX cells to calphostin C, paclitaxel or doxorubicin was determined using a clonogenic assay. Briefly, 2.5×10^5 cells were seeded into 25 cm^2 tissue culture flasks in Dulbecco's H21 medium supplemented with 10% FBS. The cells were allowed to grow overnight, after which the medium was removed and replaced with medium containing varying concentrations of paclitaxel, doxorubicin, or calphostin C (after 2 hours of light exposure to activate the molecule). After 24 hours, the medium (including any floating cells) was transferred to 14 ml screw-capped tubes and centrifuged at 1000 rpm for 10 min. The adherent cells were then released from their flasks by trypsin treatment and suspended in 10 ml of H21 medium. The cell suspension was transferred to the previous tube and all cells harvested by centrifugation. The cell pellet was washed one more time with drug-free medium and resuspended in 300 μl of normal growth medium containing FBS. The cells were then added to 2.7 ml of a methylcellulose solution. The methylcellulose medium was prepared by combining 70 ml of a 2.6% (w/v) methylcellulose solution [Shin-Etsu Chemical Co., Tokyo, Japan] in Iscove's medium (Princess Margaret Hospital, Toronto, ON) with 30 ml of FBS. Three ml syringes equipped with a 16-gauge needle were used for transferring the viscous medium. The mixture was vigorously vortexed for 10 s to ensure an even distribution of cells within the viscous medium. The vortexed samples were then allowed to sit for 30 min to remove air bubbles. A 1.2 ml aliquot of the cell suspension was then transferred to a 6-well plate and the cells allowed to grow until colonies of >50 cells were visible by light microscopy for the various cell lines in the absence of drug. The colonies present in 5 randomly selected fields were then counted by visual inspection.
Calphostin C (Sigma Laboratories, Oakville, ON) was prepared as a 100 μM stock solution in dimethylsulfoxide (Sigma Laboratories, Oakville, ON) and stored at −70° C. in 100 μl aliquots. […]

MCF-7TAX cells [3] = assay: Drug uptake, MCF-7TAX; assay type: cell-based, human; settings: 2 μM doxorubicin or [3H]-paclitaxel
Protocol: (§3) FIG. 5 illustrates the effect of calphostin C (Cal-C) on drug uptake in MCF-7 (square symbols), MCF-7TAX (diamond symbols) and MCF-7DOX (triangular symbols) cells. After one-day growth, the cells were left untreated (closed symbols) or treated with 100 nM calphostin C for 2 h with light activation (open symbols). Cells were then washed and the medium replaced with medium containing 2 μM of doxorubicin (A) or [^3H]-paclitaxel (B). The cells were then trypsinized and drug accumulation measured by flow cytometry (A) or liquid scintillation counting (B) at indicated time points. The figures are representative of three independent experiments.

MCF-7DOX cells [4] = assay: Microscopic cell morphology, MCF-7DOX; assay type: cell-based, human; settings: 2 μM doxorubicin, 24 h
Protocol: (§4) For microscopic observation, cells were seeded onto standard glass coverslips in 10 cm tissue culture plates with 10 ml of H21 medium and grown for 2 days until 40-50% confluence was obtained. After treatment with paclitaxel, doxorubicin or calphostin C, the cells on the glass coverslips were washed twice with PBS (2.7 mM KCl, 1.0 mM KH2PO4, 137 mM NaCl, 10 mM Na2HPO4, pH 7.4) and stained with acridine orange/ethidium bromide (each at 4 μg/ml in PBS) for 10 min at 37° C.. The coverslips were then washed three times in PBS and mounted onto standard glass slides for morphological evaluation. For propidium iodide (PI) staining, the cells on coverslips were washed twice with PBS and fixed in methanol (cooled to −20° C.) for 20 min. Thirty μl of propidium iodide (PI) staining solution (100 μg/ml PI, 0.1% sodium citrate, 100 μg/ml RNase A and 0.3% Nonidet P-40) were then applied to the coverslips for 5 min. […] The cells were then examined using a Zeiss Axiovert 100 inverted fluorescence microscope. […] For each sample, the number of dead cells was determined by visualization after ethidium bromide staining, whereby only dead cells which have lost membrane integrity allow entry of cell-impermeable ethidium bromide into cells to complex with DNA and induce bright red fluorescence. […] The images were recorded and overlayed using Northern Eclipse software (Empix Imaging Inc., Mississauga, ON).

MCF-7 cells [5] = assay: Flow cytometric sub-G1 DNA content, MCF-7; assay type: cell-based, human; settings: 10 nM paclitaxel or 2 μM doxorubicin
Protocol: For flow cytometric analysis, cells at about 50% to 60% confluence were released from their flasks by trypsin treatment and washed with PBS. After centrifugation at 1000 rpm for 5 min, cells were then fixed by resuspension in 75% ethanol for 2 hours, collected by centrifugation, and resuspended in PI staining solution (see above) for 1 h. For each sample, approximately 2×10^4 cells were analyzed using a Beckman Coulter Epics® Elite flow cytometer. Fluorescence intensity upon stimulation with an argon-ion laser at 488 nm was measured using the PMT4 channel (625DL filter) and plotted against cell number. The percentage of cells with a sub-G1 DNA content was determined by the flow cytometer, adjusting the gates such that only cells with a fluorescence lower than the peak for untreated cells in G1 are counted (see FIG. 4).

MCF-7DOX cells [6] = assay: Drug uptake, MCF-7DOX; assay type: cell-based, human; settings: 2 μM doxorubicin or [3H]-paclitaxel
Protocol: as §3

[7] = test system: caspase-8 and PARP in Jurkat cells; assay: Immunoblotting of apoptosis markers, Jurkat (positive control); assay type: cell-based; settings: 3 μg/ml etoposide, 24 hours
Protocol: FIG. 9 illustrates the effect of calphostin C on caspase 8 cleavage, PARP cleavage, and cytochrome C release in MCF-7, MCF-7FDOX, and MCF-7TAX cells. The MCF-7, MCF-7FDOX, and MCF-7TAX cell lines were incubated with (+) or without (−) 100 nM calphostin C, after which whole cell extracts were monitored for caspase-8 and cytochrome C levels by immunoblotting as described in Materials and Methods. A similar experiment was also performed, except that mitochondrial (M) and cytosolic (C) fractions were prepared as described in Materials and Methods to monitor by immunoblotting the release of cytochrome C from mitochondria into the cytosol in response to calphostin C. As positive controls, similar experiments were conducted using Jurkat cells, with (+) or without (−) the addition of 3 μg/ml etoposide for 24 hours.
Extraction of proteins from whole cells was performed using RIPA buffer (1% NP40, 0.5% sodium deoxycholate, 0.1% SDS, 1 Complete™ protease inhibitor tablet in 50 ml of PBS). Prior to use, the RIPA buffer (50 ml) was supplemented with 500 μl each of both 100 mM sodium orthovanadate and 10 mg/ml phenylmethylsulfonyl fluoride. Cultured cells were grown as a monolayer and allowed to reach 70-90% confluence in 10 cm tissue culture plates. […]

MCF-7TAX cells [8] = assay: Microscopic cell morphology, MCF-7TAX; assay type: cell-based, human; settings: 10 nM paclitaxel, 24 h
Protocol: as §4

MCF-7 cells [9] = assay: Microscopic cell morphology (bright field, AO/EB, PI), MCF-7; assay type: cell-based, human; settings: 10 nM paclitaxel, 24 hours, PI staining
Protocol: as §4

[10] = test system: MCF-7TAX (paclitaxel-resistant) cells; assay: Clonogenic assay, MCF-7TAX cells; assay type: cell-based, human
Protocol: as §1, §2

| IC50 ([2]; Homo sapiens, MCF7-DOX, MCF-7DOX cells, 24 h drug, calphostin C light-activated 2 h) [nM] | IC50 ([10]; Homo sapiens, MCF-7TAX cells, 24 h drug, calphostin C light-activated 2 h) [nM] | fold higher IC50 than for MCF-7 cells ([10]; MCF-7TAX vs MCF-7) [fold] | Compound | IC50 (MCF-7 cells [1]) [nM] | fold resistance / lower sensitivity compared to MCF-7 cells [2] | drug uptake compared to MCF-7 cells (MCF-7TAX cells [3]) | change in morphology over untreated cells (MCF-7DOX cells [4]) | time of large increase in number of cells with sub-G1 DNA content after drug administration (MCF-7 cells [5]) | drug uptake compared to MCF-7 cells (MCF-7DOX cells [6]) | caspase-8 and PARP cleavage [7] | change in morphology over untreated cells (MCF-7TAX cells [8]) | percentage of adherent cells multinucleated (MCF-7 cells [9]) |
| --- | --- | --- | --- | --- | --- | --- | --- | --- | --- | --- | --- | --- |
| 600 | – | – | COc1cccc2c1C(=O)c1c(O)c3c(c(O)c1C2=O)C[C@@](O)(C(=O)CO)C[C@@H]3O[C@H]1C[C@H](N)[C@H](O)[C@H](C)O1 [doxorubicin] | 10 | 60 fold | dramatically lower | no change in morphology | approximately 24 hours | dramatically lower | – | – | – |
| – | – | – | COc1cc([C@@H]2c3cc4c(cc3[C@@H](O[C@@H]3O[C@@H]5CO[C@@H](C)O[C@H]5[C@H](O)[C@H]3O)[C@H]3COC(=O)[C@H]23)OCO4)cc(OC)c1O [etoposide] | – | – | – | – | – | – | could induce caspase-8 and PARP cleavage | – | – |
| – | 27 | 54 | CC(=O)O[C@H]1C(=O)[C@@]2(C)[C@H]([C@H](OC(=O)c3ccccc3)[C@]3(O)C[C@H](OC(=O)[C@H](O)[C@@H](NC(=O)c4ccccc4)c4ccccc4)C(C)=C1C3(C)C)[C@]1(OC(C)=O)CO[C@@H]1C[C@@H]2O [paclitaxel] | 0.5 | approximately 4000 fold | dramatically lower | – | approximately 24 hours | dramatically lower | – | no change in morphology | over 60% |
